Laboratory results taken from patent US9302999B2, “Substituted triazoles as herbicides” (E. I. DU PONT DE NEMOURS AND COMPANY, priority 2012, dated 2016).

Assays:
Type in all cases: in vivo
[1] = test system: barnyardgrass (Echinochloa crus-galli); test: Test A pre-/postemergence: barnyardgrass; details: for Barnyardgrass plant response rating: Postemergence; for Plant response rating, Barnyardgrass: Preemergence
How it was run: (§1)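 Injury was scored visually on a 0 (no effect) to 100 (complete control) scale versus untreated controls roughly ten days after treatment in the greenhouse. Compounds, formulated in surfactant-containing non-phytotoxic solvent, went on as soil-directed preemergence spray or postemergence to one- to two-leaf plants 2–10 cm tall.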

[2] = test system: foxtail, giant (giant foxtail, Setaria faberii); test: Test A pre-/postemergence: foxtail, giant; details: for Foxtail, Giant plant response rating: Postemergence; for Plant response rating, Foxtail, Giant: Preemergence
How it was run: as §1

[3] = test system: velvetleaf (Abutilon theophrasti); test: Test A pre-/postemergence: velvetleaf
How it was run: as §1

[4] = test system: morningglory (Ipomoea spp.); test: Test A pre-/postemergence: morningglory
How it was run: as §1

[5] = test system: galium (catchweed bedstraw, Galium aparine); test: Test C pre-/postemergence: galium
How it was run: (§2)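 Preemergence on seeds in loam/sand, postemergence on 2–18 cm (1–4-leaf) plants in peat-based medium; compounds in non-phytotoxic solvent with surfactant. After 13–15 days in greenhouse, visual rating versus controls, 0 (no effect) to 100 (complete control).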

[6] = test system: crabgrass, large (large crabgrass, Digitaria sanguinalis); test: Test A pre-/postemergence: crabgrass, large; details: for Crabgrass, Large plant response rating: Postemergence; for Plant response rating, Crabgrass, Large: Preemergence
How it was run: as §1

[7] = test system: large crabgrass (Digitaria sanguinalis); test: Test C pre-/postemergence: large crabgrass
How it was run: as §2

[8] = test system: nutsedge, yellow (yellow nutsedge, Cyperus esculentus); test: Test C pre-/postemergence: nutsedge, yellow
How it was run: as §2

[9] = test system: ryegrass, Italian (Italian ryegrass, Lolium multiflorum); test: Test C pre-/postemergence: ryegrass, Italian
How it was run: as §2

[10] = test system: chickweed (common chickweed, Stellaria media); test: Test C postemergence: chickweed
How it was run: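 Crop and weed plants were grown in peat-vermiculite medium and treated postemergence at the 1- to 4-leaf stage (2-18 cm tall). After 13-15 days in a greenhouse, each species was rated visually against untreated controls on a 0-100 scale (0 no effect, 100 complete control).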

[11] = test system: wild oat (Avena fatua); test: Test C pre-/postemergence: wild oat
How it was run: as §2

[12] = 125 g ai/ha, 0 to 100 scale, 0 is no effect, 100 is complete control
[13] = 500 g ai/ha, visual rating on 0 to 100 scale (0 no effect, 100 complete control), approximately ten days
[14] = 125 g ai/ha, 0 to 100 scale (0 no effect, 100 complete control)
[15] = 500 g ai/ha, 0 to 100 scale, 0 is no effect, 100 is complete control
[16] = Postemergence, 125 g ai/ha, 0 to 100 scale, 0 is no effect, 100 is complete control
[17] = Postemergence, 500 g ai/ha, visual rating on 0 to 100 scale (0 no effect, 100 complete control), approximately ten days
[18] = Preemergence, 125 g ai/ha, 0 to 100 scale (0 no effect, 100 complete control)
[19] = Postemergence, 31 g ai/ha, scale 0 to 100 (0 no effect, 100 complete control)
[20] = Postemergence, 62 g ai/ha, scale 0 to 100 (0 no effect, 100 complete control)
[21] = Postemergence, 125 g ai/ha, scale 0 to 100, 0 no effect, 100 complete control
[22] = Postemergence, 250 g ai/ha, scale 0 to 100
[23] = 31 g ai/ha, scale 0 to 100 (0 no effect, 100 complete control)
[24] = 62 g ai/ha, scale 0 to 100 (0 no effect, 100 complete control)
[25] = 125 g ai/ha, scale 0 to 100, 0 no effect, 100 complete control
[26] = 125 g ai/ha, 0 to 100 scale where 0 is no effect and 100 is complete control
[27] = 500 g ai/ha, 0 to 100 scale (0 no effect, 100 complete control)
[28] = Preemergence, 125 g ai/ha, 0 to 100 scale where 0 is no effect and 100 is complete control
[29] = Preemergence, 500 g ai/ha, 0 to 100 scale (0 no effect, 100 complete control)
[30] = Preemergence, 31 g ai/ha, scale of 0 to 100, 0 is no effect, 100 is complete control
[31] = Preemergence, 62 g ai/ha, scale of 0 to 100, 0 is no effect, 100 is complete control
[32] = Preemergence, 125 g ai/ha, scale 0 to 100, 0 no effect, 100 complete control
[33] = Preemergence, 250 g ai/ha, scale 0 to 100, 0 no effect, 100 complete control

FC(F)(F)c1ccc(-n2nc(Cl)c(Cc3ccnc(C(F)(F)F)c3)n2)cc1 [Compound 28]
Barnyardgrass plant response rating [1, 12]: 70 | Barnyardgrass plant response rating [1, 13]: 90 | Plant response rating, Barnyardgrass [1, 14]: 50 | Plant response rating, Barnyardgrass [1, 15]: 90 | Foxtail, Giant plant response rating [2, 12]: 90 | Foxtail, Giant plant response rating [2, 13]: 90 | Plant response rating, Foxtail, Giant [2, 14]: 100 | Plant response rating, Foxtail, Giant [2, 15]: 100 | Velvetleaf plant response rating [3, 16]: 80 | Velvetleaf plant response rating [3, 17]: 100 | Plant response rating, Velvetleaf [3, 18]: 20 | Plant response rating, Velvetleaf ([3]; Preemergence, 500 g ai/ha, 0 to 100 scale, 0 is no effect, 100 is complete control): 80 | Morningglory plant response rating [4, 16]: 100 | Morningglory plant response rating [4, 17]: 100 | Plant response rating, Morningglory [4, 18]: 20 | Plant response rating, Galium [5, 19]: 40 | Plant response rating, Galium [5, 20]: 55 | Plant response rating, Galium [5, 21]: 70 | Plant response rating, Galium [5, 22]: 80 | Crabgrass, Large plant response rating [6, 12]: 70 | Crabgrass, Large plant response rating [6, 13]: 90 | Plant response rating, Crabgrass, Large [6, 14]: 30 | Plant response rating, Crabgrass, Large [6, 15]: 90 | Plant response rating, Crabgrass, Large [7, 19]: 10 | Plant response rating, Crabgrass, Large [7, 20]: 15 | Plant response rating, Crabgrass, Large [7, 21]: 20 | Plant response rating, Crabgrass, Large [7, 22]: 25 | Plant response rating, Nutsedge, Yellow [8, 19]: 5 | Plant response rating, Nutsedge, Yellow [8, 20]: 5 | Plant response rating, Nutsedge, Yellow [8, 21]: 15 | Plant response rating, Nutsedge, Yellow [8, 22]: 25 | Plant response rating, Ryegrass, Italian [9, 19]: 10 | Plant response rating, Ryegrass, Italian [9, 20]: 25 | Plant response rating, Ryegrass, Italian [9, 21]: 25 | Plant response rating, Ryegrass, Italian [9, 22]: 30 | Plant response rating, Chickweed [10, 23]: 30 | Plant response rating, Chickweed [10, 24]: 55 | Plant response rating, Chickweed [10, 25]: 95 | Plant response rating, Chickweed ([10]; 250 g ai/ha, scale 0 to 100): 100 | Plant response rating, Oat, Wild [11, 19]: 10 | Plant response rating, Oat, Wild [11, 20]: 15 | Plant response rating, Oat, Wild [11, 21]: 40 | Plant response rating, Oat, Wild [11, 22]: 70

Cc1nn(-c2ccc(C(F)(F)F)cc2)nc1Oc1ccnc(C(F)(F)F)c1 [Compound 120]
Barnyardgrass plant response rating [1, 12]: 60 | Barnyardgrass plant response rating [1, 13]: 80 | Plant response rating, Barnyardgrass [1, 26]: 90 | Plant response rating, Barnyardgrass [1, 27]: 100 | Foxtail, Giant plant response rating [2, 12]: 80 | Foxtail, Giant plant response rating [2, 13]: 80 | Plant response rating, Foxtail, Giant [2, 26]: 100 | Plant response rating, Foxtail, Giant [2, 27]: 100 | Velvetleaf plant response rating [3, 16]: 50 | Velvetleaf plant response rating [3, 17]: 80 | Plant response rating, Velvetleaf [3, 28]: 40 | Plant response rating, Velvetleaf [3, 29]: 70 | Morningglory plant response rating [4, 16]: 90 | Morningglory plant response rating [4, 17]: 100 | Plant response rating, Morningglory [4, 28]: 10 | Plant response rating, Morningglory [4, 29]: 30 | Plant response rating, Galium [5, 19]: 80 | Plant response rating, Galium [5, 20]: 80 | Plant response rating, Galium [5, 21]: 85 | Plant response rating, Galium [5, 30]: 98 | Plant response rating, Galium [5, 31]: 100 | Plant response rating, Galium [5, 32]: 100 | Plant response rating, Galium [5, 33]: 100 | Crabgrass, Large plant response rating [6, 12]: 80 | Crabgrass, Large plant response rating [6, 13]: 90 | Plant response rating, Crabgrass, Large [6, 26]: 100 | Plant response rating, Crabgrass, Large [6, 27]: 100 | Plant response rating, Crabgrass, Large [7, 19]: 5 | Plant response rating, Crabgrass, Large [7, 20]: 25 | Plant response rating, Crabgrass, Large [7, 21]: 25 | Plant response rating, Crabgrass, Large [7, 22]: 45 | Plant response rating, Crabgrass, Large [7, 30]: 100 | Plant response rating, Crabgrass, Large [7, 31]: 100 | Plant response rating, Crabgrass, Large [7, 32]: 100 | Plant response rating, Crabgrass, Large [7, 33]: 100 | Plant response rating, Nutsedge, Yellow [8, 19]: 0 | Plant response rating, Nutsedge, Yellow [8, 20]: 0 | Plant response rating, Nutsedge, Yellow [8, 21]: 0 | Plant response rating, Nutsedge, Yellow [8, 22]: 0 | Plant response rating, Nutsedge, Yellow [8, 30]: 0 | Plant response rating, Nutsedge, Yellow [8, 31]: 0 | Plant response rating, Nutsedge, Yellow [8, 32]: 0 | Plant response rating, Nutsedge, Yellow [8, 33]: 0 | Plant response rating, Ryegrass, Italian [9, 19]: 5 | Plant response rating, Ryegrass, Italian [9, 20]: 5 | Plant response rating, Ryegrass, Italian [9, 21]: 5 | Plant response rating, Ryegrass, Italian [9, 22]: 30 | Plant response rating, Ryegrass, Italian [9, 30]: 40 | Plant response rating, Ryegrass, Italian [9, 31]: 90 | Plant response rating, Ryegrass, Italian [9, 32]: 90 | Plant response rating, Ryegrass, Italian [9, 33]: 95 | Plant response rating, Chickweed [10, 23]: 75 | Plant response rating, Chickweed [10, 24]: 100 | Plant response rating, Chickweed [10, 25]: 100 | Plant response rating, Chickweed ([10]; 250 g ai/ha, scale 0 to 100): 100 | Plant response rating, Oat, Wild [11, 19]: 55 | Plant response rating, Oat, Wild [11, 20]: 60 | Plant response rating, Oat, Wild [11, 21]: 80 | Plant response rating, Oat, Wild [11, 22]: 90 | Plant response rating, Oat, Wild [11, 30]: 85 | Plant response rating, Oat, Wild [11, 31]: 90 | Plant response rating, Oat, Wild [11, 32]: 95 | Plant response rating, Oat, Wild [11, 33]: 95

COc1nn(-c2ccc(C(F)(F)F)cc2)nc1Cc1ccnc(C(F)F)c1 [Compound 138]
Barnyardgrass plant response rating [1, 12]: 90 | Barnyardgrass plant response rating [1, 13]: 90 | Plant response rating, Barnyardgrass [1, 26]: 90 | Plant response rating, Barnyardgrass [1, 27]: 100 | Foxtail, Giant plant response rating [2, 12]: 90 | Foxtail, Giant plant response rating [2, 13]: 90 | Plant response rating, Foxtail, Giant [2, 26]: 100 | Plant response rating, Foxtail, Giant [2, 27]: 100 | Plant response rating, Velvetleaf [3, 16]: 100 | Velvetleaf plant response rating [3, 17]: 100 | Plant response rating, Velvetleaf [3, 28]: 70 | Plant response rating, Velvetleaf [3, 29]: 100 | Plant response rating, Morningglory [4, 16]: 100 | Morningglory plant response rating [4, 17]: 100 | Plant response rating, Morningglory [4, 28]: 70 | Plant response rating, Morningglory [4, 29]: 90 | Plant response rating, Galium [5, 19]: 85 | Plant response rating, Galium [5, 20]: 90 | Plant response rating, Galium [5, 22]: 90 | Plant response rating, Galium [5, 30]: 95 | Plant response rating, Galium [5, 31]: 100 | Plant response rating, Galium [5, 32]: 100 | Plant response rating, Galium [5, 33]: 100 | Crabgrass, Large plant response rating [6, 12]: 90 | Crabgrass, Large plant response rating [6, 13]: 90 | Plant response rating, Crabgrass, Large [6, 26]: 90 | Plant response rating, Crabgrass, Large [6, 27]: 90 | Plant response rating, Crabgrass, Large [7, 19]: 45 | Plant response rating, Crabgrass, Large [7, 20]: 50 | Plant response rating, Crabgrass, Large [7, 21]: 55 | Plant response rating, Crabgrass, Large [7, 22]: 95 | Plant response rating, Crabgrass, Large [7, 30]: 98 | Plant response rating, Crabgrass, Large [7, 31]: 100 | Plant response rating, Crabgrass, Large [7, 32]: 100 | Plant response rating, Crabgrass, Large [7, 33]: 100 | Plant response rating, Nutsedge, Yellow [8, 19]: 10 | Plant response rating, Nutsedge, Yellow [8, 20]: 10 | Plant response rating, Nutsedge, Yellow [8, 21]: 15 | Plant response rating, Nutsedge, Yellow [8, 22]: 20 | Plant response rating, Nutsedge, Yellow [8, 30]: 5 | Plant response rating, Nutsedge, Yellow [8, 32]: 5 | Plant response rating, Nutsedge, Yellow [8, 33]: 5 | Plant response rating, Ryegrass, Italian [9, 19]: 40 | Plant response rating, Ryegrass, Italian [9, 20]: 55 | Plant response rating, Ryegrass, Italian [9, 21]: 60 | Plant response rating, Ryegrass, Italian [9, 22]: 75 | Plant response rating, Ryegrass, Italian [9, 30]: 10 | Plant response rating, Ryegrass, Italian [9, 31]: 40 | Plant response rating, Ryegrass, Italian [9, 32]: 70 | Plant response rating, Ryegrass, Italian [9, 33]: 90 | Plant response rating, Chickweed [10, 24]: 80 | Plant response rating, Chickweed [10, 25]: 95 | Plant response rating, Chickweed ([10]; 250 g ai/ha, scale 0 to 100): 98 | Plant response rating, Oat, Wild [11, 19]: 55 | Plant response rating, Oat, Wild [11, 20]: 60 | Plant response rating, Oat, Wild [11, 21]: 80 | Plant response rating, Oat, Wild [11, 22]: 98 | Plant response rating, Oat, Wild [11, 30]: 80 | Plant response rating, Oat, Wild [11, 31]: 85 | Plant response rating, Oat, Wild [11, 32]: 95 | Plant response rating, Oat, Wild [11, 33]: 95
